How the values were obtained:
VANILREP1 [1] = molecular target: T1, VANILREP1 (Homo sapiens, UniProt Q8NER1, K571I/M315I/M572C); assay: Two-electrode voltage-clamp recordings in Xenopus laevis oocytes injected with VANILREP1 cDNA; assay type: cell-based
T1 construct: expressed in transfected cells; host or cells: Xenopus laevis oocytes (nuclear injection of cDNA)
Protocol: (§1) Xenopus laevis oocyte removal and dissociation were performed. Injections of cDNA for […]1 were made into the nuclei of defolliculated oocytes (1.5ng cDNA/oocyte). After injection the oocytes were incubated between 19-22° C. in modified Barth's solution (MBS) plus gentamycin (0.1mg/ml, pH 7.4) and used for electrophysiological recordings within 2-4 days.
(§2) For electrophysiological recordings oocytes were placed in a recording chamber and continuously perfused with a solution containing in mM: NaCl 88, KCI 1, NaHCO3 2.4, HEPES 15, MgCI2 1, BaCI2 0.1. (14 ml min^−1). Solution was applied using large bore tubing (internal diameter 1.5mm) which facilitated rapid solution exchange half-time 350 -1000 ms). Oocytes were held under voltage clamp at −60mV using the two-electrode voltage-clamp technique. Electrodes were low resistance (0.5-3 MΩ) and were filled with 3 M KCI.
(§3) Currents were evoked in response to application of capsaicin applied through the perfusion system until the maximum current amplitude was reached.

VANILREP1 [2] = molecular target: T2, VANILREP1 (Homo sapiens, UniProt Q8NER1); assay: as above; assay type: cell-based; conditions: oocytes expressing VANILREP1, held at −60mV; capsaicin over a range of concentrations; FIG. 1
T2 construct: expressed in transfected cells; host or cells: Xenopus laevis oocytes (nuclear injection of cDNA)
T2 sequence (Q8NER1 whole entry M315I/K571I/M572C): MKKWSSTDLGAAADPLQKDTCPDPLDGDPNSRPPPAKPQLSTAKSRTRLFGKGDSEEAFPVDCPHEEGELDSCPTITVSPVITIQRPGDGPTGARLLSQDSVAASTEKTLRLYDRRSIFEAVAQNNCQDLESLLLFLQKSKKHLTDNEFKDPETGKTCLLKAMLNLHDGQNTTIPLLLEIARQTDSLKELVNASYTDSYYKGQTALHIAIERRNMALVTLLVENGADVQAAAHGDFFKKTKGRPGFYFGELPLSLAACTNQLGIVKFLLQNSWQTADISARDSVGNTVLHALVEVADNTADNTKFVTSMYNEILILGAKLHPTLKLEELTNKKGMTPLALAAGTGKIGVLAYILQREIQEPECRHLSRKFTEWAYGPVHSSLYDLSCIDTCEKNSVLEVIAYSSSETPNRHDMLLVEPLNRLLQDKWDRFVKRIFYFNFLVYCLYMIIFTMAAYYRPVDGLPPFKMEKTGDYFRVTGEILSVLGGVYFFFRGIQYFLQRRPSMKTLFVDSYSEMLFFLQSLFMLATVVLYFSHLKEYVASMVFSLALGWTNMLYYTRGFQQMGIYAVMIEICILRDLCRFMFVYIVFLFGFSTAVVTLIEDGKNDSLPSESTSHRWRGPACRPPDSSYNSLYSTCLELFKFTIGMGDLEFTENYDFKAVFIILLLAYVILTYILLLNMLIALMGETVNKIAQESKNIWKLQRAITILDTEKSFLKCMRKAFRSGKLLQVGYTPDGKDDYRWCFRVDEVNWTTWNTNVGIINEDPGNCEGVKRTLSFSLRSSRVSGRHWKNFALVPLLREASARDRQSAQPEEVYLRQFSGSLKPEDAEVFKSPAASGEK
Protocol: as §1, §2, §3

T1 sequence (Q8NER1 whole entry M315I/K571I/M572C): as above

Oc1cc2c(cc1O)CN(C(=S)NCCc1ccc(Cl)cc1)CCC2 [capsazepine]
inhibition of the capsaicin evoked response (VANILREP1 [1]; capsazepine 10uM against capsaicin 1uM, oocytes expressing VANILREP1, FIG. 2): inhibition
reversibility of the inhibition of the capsaicin evoked response (VANILREP1 [1]; capsazepine 10uM, capsaicin 1uM, extended washing): reversible with extended washing

COc1cc(CNC(=O)CCCC/C=C/C(C)C)ccc1O [capsaicin]
currents evoked in response to application of capsaicin (VANILREP1 [2]): currents evoked

— patent publication US20010047090A1, “VANILREP1 polynucleotides and VANILREP1 polypeptides” (priority 1998, published 2001)
